Data: ChEMBL document CHEMBL3120134, “A review of non-nucleoside anti-hepatitis B virus agents” (Eur J Med Chem, 2014)
Each block holds one compound with its values, some of them ahead of it.

Experiments:
[1] = system: Hepatitis B virus; experiment: Antiviral activity against Hepatitis B virus assessed as inhibition of Hepatitis B virus DNA replication; format: functional, organism-based
[2] = system: Hepatitis B virus; experiment: Antiviral activity against Hepatitis B virus infected in human HepG2.2.15 cells assessed as decrease in HBV surface antigen secretion; format: functional, organism-based, HepG2 2.2.15; conditions: Hepatitis B virus, HepG2 2.2.15
[3] = system: Hepatitis B virus; experiment: Antiviral activity against Hepatitis B virus; format: functional, organism-based
[4] = system: Hepatitis B virus; experiment: Antiviral activity against Hepatitis B virus infected in human HepG2.2.15 cells assessed as decrease in HBV surface antigen secretion at 200 ug/ml after 9 days by ELISA; format: functional; conditions: HepG2 2.2.15, 216 h
[5] = system: Duck hepatitis B virus; experiment: Antiviral activity against Duck Hepatitis B virus infected in duckling assessed as decrease in DHBV level in serum at 120 mg/kg dosed through liquid diet for 10 days administered started on day 7 post-infection; format: functional
[6] = system: Hepatitis B virus; experiment: Antiviral activity against Hepatitis B virus infected in human HepG2.2.15 cells assessed as decrease in HBV e antigen secretion at 200 ug/ml after 9 days by ELISA; format: functional; conditions: HepG2 2.2.15, 216 h
[7] = system: Hepatitis B virus; experiment: Antiviral activity against Hepatitis B virus infected in human HepG2.2.15 cells assessed as decrease in HBV DNA production; format: functional, organism-based; conditions: HepG2 2.2.15
[8] = Selectivity index, ratio of cytotoxicity towards human HepG2.2.15 cells to IC50 for HBV DNA production; format: toxicity, cell-based; conditions: read-out: Selectivity Index
[9] = system: Hepatitis B virus; experiment: Antiviral activity against Hepatitis B virus assessed as inhibition of virion production; format: functional, organism-based

Compound: CC(=O)O[C@H]([C@@H](O)C[C@@H](C)C1=C2C[C@H](O)[C@H]3[C@@]4(C)CCC(=O)C(C)(C)[C@@H]4CC[C@]3(C)[C@@]2(C)CC1)C(C)(C)O
IC50 [2]: 600 nM

Compound: O=c1[nH][nH]c(=O)c2c(-c3ccc4c(c3)OCO4)c3c4c(ccc3cc12)OCO4
EC50 [3]: 30 nM

Compound: CC(C)(O)[C@@H]1CC[C@](C)([C@H]2[C@@H](O)C[C@@]3(C)[C@@H]4C[C@H](O[C@@H]5O[C@H](CO)[C@@H](O)[C@H](O)[C@H]5O)[C@H]5C(C)(C)[C@@H](O[C@@H]6OC[C@@H](O)[C@H](O)[C@H]6O)CC[C@@]56C[C@@]46CC[C@]23C)O1
inhibition at 200 µg/mL [4]: 31.8%
inhibition in vivo at 120 mg/kg [5]: 64%
inhibition at 200 µg/mL [6]: 23.3%

Compound: NC(=O)c1cc2ccc3c(c2c(-c2ccc4c(c2)OCO4)c1C(=O)O)OCO3
EC50 [3]: 800 nM

Compound: Cc1oc2nc1C(=O)N[C@@H](C)c1nc(co1)C(=O)N[C@@H](CC(C)C)C(=O)N1CCC[C@H]1C(=O)N[C@@H](C(C)C)c1nc-2cs1 [LEUCAMIDE A]
IC50 [1]: 76400 nM

Compound: CC(=O)Oc1ccccc1C(=O)Nc1ncc([N+](=O)[O-])s1 [NITAZOXANIDE]
EC50 [3]: 120 nM

Compound: COc1ccc2c(c1)-c1nc3c(CN4CCCCC4)c(O)c(OC)cc3cc1CS2
IC50 [7]: < 10000 nM

Compound: CCN(CC)Cc1c(O)c(OC)cc2nc3c(cc12)CSc1ccc(C)cc1-3
IC50 [7]: < 10000 nM

Compound: CC(C)Cc1sc(-c2nccs2)nc1C(=O)O
IC50 [1]: 60000 nM

Compound: COC(=O)C1=C(C)NC(c2ncc(F)cc2F)=N[C@H]1c1ccc(F)cc1Cl
IC50 [1]: 50 nM

Compound: CCOC(=O)c1c(CS(=O)(=O)c2cccc(OC)c2)n(C)c2ccc(O)c(CN3CCCC3)c12
IC50 [3]: < 60 µg/mL

Compound: CCOC(=O)c1c(CS(=O)(=O)c2ccc(C)cc2)n(C2CC2)c2ccc(O)c(Cn3ccnc3)c12
IC50 [3]: < 60 µg/mL

Compound: CCN(CC)Cc1c(O)c(OC)cc2nc3c(cc12)CSc1cc(F)ccc1-3
IC50 [7]: < 10000 nM

Compound: CCC(c1nnc(SCCN2CCN(c3ccccc3OC)CC2)o1)S(=O)(=O)c1ccccc1 (stereo not drawn)
EC50 [9]: 1630 nM

Compound: COc1cc2cc3c(nc2c(Cn2ccnc2C)c1O)-c1ccc(F)cc1SC3
IC50 [7]: 1700 nM
selectivity ratio [8]: 60.3

Compound: CCOC(=O)c1c(C[S+]([O-])c2ccc(F)cc2)n(C)c2cc(Br)c(O)c(CN3CCOCC3)c12 (stereo not drawn)
IC50 [3]: < 60 µg/mL

More lines, main results first:

IC50 [1]: 2400 nM
Compound: COC(=O)c1nc(-c2nccs2)sc1CC(C)C

IC50 [1]: 1100 nM
Compound: CCOC(=O)c1nc(-c2nccs2)sc1CC(C)C

IC50 [3]: < 60 µg/mL
Compound: CCOC(=O)c1c(C[S+]([O-])c2cccc(F)c2)n(C)c2cc(Br)c(O)c(CN3CCOCC3)c12 (stereo not drawn)

IC50 [7]: < 10000 nM
Compound: COc1cc2nc3c(cc2c(CN2CCCCC2)c1O)CSc1c(C)cc(C)cc1-3

IC50 [7]: 343000 nM
IC50 [1]: 260 nM
Compound: Nc1ccn([C@@H]2CS[C@H](CO)O2)c(=O)n1 [LAMIVUDINE]
selectivity ratio [8]: 7

IC50 [3]: 35000 nM
Compound: Cc1ccc(-c2nnc3sc(CN)cn23)cc1

IC50 [3]: 40000 nM
Compound: Nn1c(SC(c2ccccc2)c2ccccc2)nnc1-c1ccc(Cl)cc1

EC50 [3]: 120 nM
Compound: O=C(Nc1ncc(Br)s1)c1ccccc1O

IC50 [3]: 63000 nM
Compound: CC(=O)OC[C@H]1O[C@@H](Sc2nnc(-c3ccc(Cl)cc3)n2N)[C@H](OC(C)=O)[C@@H](OC(C)=O)[C@@H]1OC(C)=O

EC50 [3]: 120 nM
Compound: Cc1ccc(O)c(C(=O)Nc2ncc(Cl)s2)c1

EC50 [3]: 120 nM
Compound: O=C(Nc1ncc(Cl)s1)c1ccccc1O

IC50 [2]: 600 nM
Compound: C[C@@H]1C[C@@H]([C@@H](O)C(C)(C)O)O[C@H]2C[C@@]3(C)C(=C12)C[C@H](O)[C@H]1[C@@]2(C)CCC(=O)C(C)(C)[C@@H]2CC[C@@]13C
